“And” between values parts separate entries of the source, which are not always exact repeats. Identical values can stand only once.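 In this assay, cells in 96-well plates receive the compound at five concentrations for 48 hours. Endpoints are linearly interpolated between the surrounding concentrations. Here, GI50 denotes the concentration required for 50% inhibition of growth. At the TGI there is no net growth.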

From PubChem BioAssay (NCI) come the findings set out here.

Holding throughout (test): NCI tumour cell line growth inhibition, 48 h
Experiment [1] has as its system DMS 273 small cell lung.
Experiment [2] has as its system DLD-1 colon.
The subject of experiment [3] is LXFL 529 NSCLC.
The subject of experiment [4] is KM20L2 colon.
For experiment [5], the system named is SNB-78 CNS.
Experiment [6] concerns HOP-18 NSCLC.
In experiment [7] the test system is XF 498 CNS.
Experiment [8] deals with P388 leukemia.
For experiment [9], the system named is P388/ADR leukemia.
Experiment [10] concerns SN12K1 renal.
The test system of experiment [11] is RXF-631 renal.

`O=[N+]([O-])c1cccc(C2=NN(c3ccccc3)C3c4cc(Br)ccc4OCC23)c1` (stereo unspecified): the TGI in experiment [1], in experiment [2], in experiment [3], in experiment [4], in experiment [5] and in [6] was > 100 µM throughout. Further, in experiment [7], the TGI is > 100 µM.
As for `CCCCCCCC(=O)OCC(COC(=O)C(C)(C)C)OC(=O)Cc1ccccc1` (stereo unspecified), the TGI in experiment [1], in [2], in experiment [3], in [4] and in experiment [6] was > 100 µM in each case.
Regarding `C[C@]12CCC3[C@@H](CCC45OC4C(=O)CC[C@]35C)C1Cc1cnn(-c3ccc(F)cc3)c1N2` (stereo partly specified), the TGI in experiment [1] was 38.9 µM; in experiment [3], > 100 µM; in experiment [4], 62.6 µM; in [5], 79 µM; in experiment [6], > 100 µM; in experiment [7], > 100 µM.
With `Cc1cc([N+](=O)[O-])c(C)c2c1[nH]c1ccc(Cl)cc12`, the TGI in experiment [1], in experiment [5], in [6] and in [7] was > 100 µM throughout.
On to `Cc1c2ccnc(C(N)=O)c2c(C)c2c1[nH]c1ccccc12`, for which the TGI in experiment [8] is 14 µM; in experiment [9], 35.8 µM; in [1], 23.7 µM and 16.7 µM; in [2], 45 µM and 23.6 µM; in [3], 26.9 µM; in experiment [4], 40.5 µM. The TGI in experiment [5] was 48.3 µM and > 100 µM; in [10] it was 19.1 µM; in experiment [6], 46.5 µM and 47.3 µM; in experiment [7], 19.8 µM and 26.4 µM; in experiment [11] it was 28.8 µM. Moreover, the GI50 in experiment [1] was 3.5 µM; in experiment [2] it was 3.57 µM; in [5], 6.28 µM; in experiment [6], 15 µM.
Consider `CC1=NN(C(=O)Cc2ccccc2)C(=O)/C1=C\c1ccc(O)cc1`, for which the TGI in experiment [2], in [3], in experiment [4], in experiment [5] and in experiment [7] was > 100 µM each time.
Regarding `O=[N+]([O-])c1ccc(C[P+]2(c3ccccc3)CCCCC2)cc1`, the TGI in experiment [1], in experiment [2], in experiment [3], in [4] and in experiment [6] was > 100 µM in each case.
Regarding `CCCCCCN(CCCCCC)C(=S)N/N=C(\C)c1ccccn1`, the TGI in experiment [1] stood at 3.92 µM; in [2], 2.93 µM; in [3], 1.45 µM; in experiment [4], 2.34 µM; in experiment [5], 2.34 µM; in [11], 3.67 µM.
On to `CSCC[C@@H](NC(=O)[C@H](CC(C)C)NC(=O)C(Cc1cnc[nH]1)NC(=O)CNC(=O)[C@@H](NC(=O)[C@H](C)NC(=O)[C@H](Cc1c[nH]c2ccccc12)NC(=O)[C@H](CCC(N)=O)NC(=O)[C@@H](N)CC(N)=O)C(C)C)C(N)=O` (stereo partly specified), for which the TGI in experiment [8], in experiment [9], in experiment [1], in experiment [2], in [4] and in experiment [5] was > 100 µM in each case. Further, the TGI in experiment [10], in [6] and in [7] was > 100 µM in each case.
For `COc1ccc(CNc2cnc3ccc(N)cc3n2)cc1`, the TGI in experiment [1], in [2], in [5], in experiment [6] and in experiment [7] was > 100 µM throughout.
Regarding `CN(C)c1nc(Oc2nc(N(C)C)nc(N(C)C)n2)nc(N(C)C)n1`, the TGI in experiment [1], in experiment [2], in experiment [3], in [4], in [5] and in experiment [6] was > 100 µM each time. In addition, the TGI in experiment [7] was > 100 µM.
Turning to `CN(C)CCNC(=O)c1cccc2c1Nc1ccccc1S2`, the TGI in experiment [8] was 6.23 µM; in experiment [9] it was 9.51 µM; in experiment [1], 29.3 µM; in experiment [2] it was 29.7 µM; in experiment [4], 29.9 µM; in experiment [5] it was 27.7 µM. Also, the TGI in experiment [10] is 20.7 µM; in [6], 24.4 µM; in [7], 25.3 µM.
Consider `COc1cc(C)c(CC/C(C)=C/Cc2cc(O)ccc2O)c(C)c1C`, for which the TGI in [1], in [2], in experiment [3], in experiment [4], in experiment [6] and in [7] was > 25 µM each time.
`N#CNC(N)=NCc1ccccc1`: the TGI in experiment [1], in experiment [2], in experiment [3] and in experiment [4] was > 100 µM throughout.
As to `Cc1c(N2CCOCC2)nc2ccc(Cl)cc2c1-c1ccccc1`, the TGI in [1], in [3] and in experiment [5] was > 100 µM in each case.
